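GI50 is the concentration that inhibits growth by half. TGI: total growth inhibition.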
Tests used:
Assay in all cases: DTP human tumour cell line panel, 384-well format
DU-145 prostate = system: DU-145 prostate
CCRF-CEM leukemia = system: CCRF-CEM leukemia
MALME-3M melanoma = system: MALME-3M melanoma
NCI-H460 NSCLC = system: NCI-H460 NSCLC
SK-MEL-2 melanoma = system: SK-MEL-2 melanoma
IGROV1 ovarian = system: IGROV1 ovarian
SN12C renal = system: SN12C renal
BT-549 breast = system: BT-549 breast
SK-OV-3 ovarian = system: SK-OV-3 ovarian
PC-3 prostate = system: PC-3 prostate
HT29 colon = system: HT29 colon
ACHN renal = system: ACHN renal
LOX IMVI melanoma = system: LOX IMVI melanoma
HOP-92 NSCLC = system: HOP-92 NSCLC
KM12 colon = system: KM12 colon
OVCAR-8 ovarian = system: OVCAR-8 ovarian
SR leukemia = system: SR leukemia
NCI-H23 lung = system: NCI-H23 lung
HCT-116 colon = system: HCT-116 colon
MOLT-4 leukemia = system: MOLT-4 leukemia
UACC-257 melanoma = system: UACC-257 melanoma
SNB-19 CNS = system: SNB-19 CNS
A498 renal = system: A498 renal
MDA-MB-231 breast = system: MDA-MB-231 breast
SF-268 CNS = system: SF-268 CNS
HL-60(TB) leukemia = system: HL-60(TB) leukemia
MCF7 breast = system: MCF7 breast
RPMI-8226 leukemia = system: RPMI-8226 leukemia
HCC-2998 colon = system: HCC-2998 colon
NCI-H226 lung = system: NCI-H226 lung
SF-295 CNS = system: SF-295 CNS
NCI/ADR-RES ovarian = system: NCI/ADR-RES ovarian
OVCAR-5 ovarian = system: OVCAR-5 ovarian
SW-620 colon = system: SW-620 colon
UO-31 renal = system: UO-31 renal
SK-MEL-28 melanoma = system: SK-MEL-28 melanoma
786-0 renal = system: 786-0 renal
COLO 205 colon = system: COLO 205 colon
MDA-MB-468 breast = system: MDA-MB-468 breast
CAKI-1 renal = system: CAKI-1 renal
NCI-H322M lung = system: NCI-H322M lung
OVCAR-4 ovarian = system: OVCAR-4 ovarian
RXF 393 renal = system: RXF 393 renal
K-562 leukemia = system: K-562 leukemia
SF-539 CNS = system: SF-539 CNS
OVCAR-3 ovarian = system: OVCAR-3 ovarian
M14 melanoma = system: M14 melanoma
MDA-MB-435 melanoma = system: MDA-MB-435 melanoma
U251 glioblastoma = system: U251 glioblastoma
T-47D breast = system: T-47D breast
NCI-H522 lung = system: NCI-H522 lung
SK-MEL-5 melanoma = system: SK-MEL-5 melanoma
A549 NSCLC = system: A549 NSCLC
UACC-62 melanoma = system: UACC-62 melanoma
HOP-62 NSCLC = system: HOP-62 NSCLC
TK-10 renal = system: TK-10 renal
HCT-15 colon = system: HCT-15 colon

## COCCNCc1ccc(-c2cc3nccc(Oc4ccc(NC(=S)NC(=O)Cc5ccc(F)cc5)cc4F)c3s2)nc1
DU-145 prostate
  GI50: 1860 nM
  TGI: 3.29 µM
CCRF-CEM leukemia
  GI50: 868 nM
  TGI: 2070 nM
MALME-3M melanoma
  GI50: 1540 nM
  TGI: 2890 nM
NCI-H460 NSCLC
  GI50: 1420 nM
  TGI: 2750 nM
SK-MEL-2 melanoma
  GI50: 1960 nM
  TGI: 3.38 µM
IGROV1 ovarian
  GI50: 1640 nM
  TGI: 3.54 µM
SN12C renal
  GI50: 1140 nM
  TGI: 2350 nM
BT-549 breast
  GI50: 1600 nM
  TGI: 2950 nM
SK-OV-3 ovarian
  GI50: 1550 nM
  TGI: 2890 nM
PC-3 prostate
  GI50: 1810 nM
  TGI: 3.21 µM
HT29 colon
  GI50: 1160 nM
  TGI: 2410 nM
ACHN renal
  GI50: 1720 nM
  TGI: 3.11 µM
LOX IMVI melanoma
  GI50: 2020 nM
  TGI: 3.46 µM
HOP-92 NSCLC
  GI50: 1260 nM
  TGI: 2520 nM
KM12 colon
  GI50: 385 nM
  TGI: 1440 nM
OVCAR-8 ovarian
  GI50: 1420 nM
  TGI: 2740 nM
SR leukemia
  GI50: 187 nM
  TGI: 330 nM
NCI-H23 lung
  GI50: 486 nM
  TGI: 2200 nM
HCT-116 colon
  GI50: 1280 nM
  TGI: 2560 nM
MOLT-4 leukemia
  GI50: 582 nM
  TGI: 1780 nM
UACC-257 melanoma
  GI50: 1090 nM
  TGI: 2290 nM
SNB-19 CNS
  GI50: 1780 nM
  TGI: 3.19 µM
A498 renal
  GI50: 1560 nM
  TGI: 2900 nM
MDA-MB-231 breast
  GI50: 1440 nM
  TGI: 2760 nM
SF-268 CNS
  GI50: 1570 nM
  TGI: 2920 nM
HL-60(TB) leukemia
  GI50: 621 nM
  TGI: 1750 nM
MCF7 breast
  GI50: 1480 nM
  TGI: 2810 nM
RPMI-8226 leukemia
  GI50: 614 nM
  TGI: 1820 nM
HCC-2998 colon
  GI50: 1850 nM
  TGI: 3.26 µM
NCI-H226 lung
  GI50: 1950 nM
  TGI: 3.62 µM
SF-295 CNS
  GI50: 875 nM
  TGI: 2110 nM
NCI/ADR-RES ovarian
  GI50: 1580 nM
  TGI: 2930 nM
OVCAR-5 ovarian
  GI50: 1940 nM
  TGI: 3.38 µM
SW-620 colon
  GI50: 1550 nM
  TGI: 2920 nM
UO-31 renal
  GI50: 1600 nM
  TGI: 2950 nM
SK-MEL-28 melanoma
  GI50: 1500 nM
  TGI: 2830 nM
786-0 renal
  GI50: 1480 nM
  TGI: 2820 nM
COLO 205 colon
  GI50: 1610 nM
  TGI: 2980 nM
MDA-MB-468 breast
  GI50: 1850 nM
  TGI: 3.25 µM
CAKI-1 renal
  GI50: 1520 nM
  TGI: 2860 nM
NCI-H322M lung
  GI50: 1700 nM
  TGI: 3.09 µM
OVCAR-4 ovarian
  GI50: 1090 nM
  TGI: 2300 nM
RXF 393 renal
  GI50: 1590 nM
  TGI: 2940 nM
K-562 leukemia
  GI50: 177 nM
  TGI: 343 nM
SF-539 CNS
  GI50: 969 nM
  TGI: 2150 nM
OVCAR-3 ovarian
  GI50: 1890 nM
  TGI: 3.31 µM
M14 melanoma
  GI50: 1580 nM
  TGI: 2940 nM
MDA-MB-435 melanoma
  GI50: 1860 nM
  TGI: 3.27 µM
U251 glioblastoma
  GI50: 1300 nM
  TGI: 2580 nM
T-47D breast
  GI50: 1480 nM
  TGI: 2810 nM
NCI-H522 lung
  GI50: 1670 nM
  TGI: 3.03 µM
SK-MEL-5 melanoma
  GI50: 1260 nM
  TGI: 2520 nM
A549 NSCLC
  GI50: 1680 nM
  TGI: 3.07 µM
UACC-62 melanoma
  GI50: 1520 nM
  TGI: 2860 nM
HOP-62 NSCLC
  GI50: 1930 nM
  TGI: 3.35 µM
TK-10 renal
  GI50: 1780 nM
  TGI: 3.17 µM
HCT-15 colon
  GI50: 1710 nM
  TGI: 3.11 µM

From PubChem BioAssay (NCI)
